Publication PMC12074337, “Isolation and Characterization of Earthworm Peptides with Neuroprotective Effects in Parkinson’s Disease Models” (Molecules, 2025)
Like-named read-outs stand apart in the source and are kept apart here. Values belong to the molecule of their own block, whether it stands above or below them. No end group written: not given here.

Key:
[1] = target: T1, PINK1 (Tribolium castaneum, UniProt D6WMX4); assay: biochemical; format: biochemical; conditions: for PINK1 agonistic rate: 100 μM
T1 construct: made in house
T1 sequence (D6WMX4 6-570): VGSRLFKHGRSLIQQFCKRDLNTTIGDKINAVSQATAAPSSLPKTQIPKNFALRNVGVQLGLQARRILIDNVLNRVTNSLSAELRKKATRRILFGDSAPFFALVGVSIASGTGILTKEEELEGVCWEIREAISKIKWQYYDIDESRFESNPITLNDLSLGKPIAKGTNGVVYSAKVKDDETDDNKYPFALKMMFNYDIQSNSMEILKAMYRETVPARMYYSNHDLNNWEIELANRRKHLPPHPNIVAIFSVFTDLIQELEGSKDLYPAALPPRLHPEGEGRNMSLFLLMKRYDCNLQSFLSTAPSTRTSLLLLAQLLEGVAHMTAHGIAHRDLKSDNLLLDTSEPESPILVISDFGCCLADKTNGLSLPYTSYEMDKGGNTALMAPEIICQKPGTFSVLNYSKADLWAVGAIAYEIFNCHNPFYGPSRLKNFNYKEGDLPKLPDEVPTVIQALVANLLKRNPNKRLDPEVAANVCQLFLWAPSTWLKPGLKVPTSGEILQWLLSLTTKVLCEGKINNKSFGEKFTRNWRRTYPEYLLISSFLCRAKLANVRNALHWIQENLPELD
Protocol: The earthworms (Lumbricus terrestris) were purchased from Beijing Tongrentang Co., Ltd. (Chengdu, China). They were dried by the supplier through sun-drying and stored at 4 °C. The shelf life is one year. Rasagiline was purchased from Aladdin Biochemical Technology Co., Ltd. (Shanghai, China). Resveratrol was purchased from Pusi Biotechnology Co., Ltd. (Chengdu, China). The SH-SY5Y cells were obtained from the National Collection of Authenticated Cell Cultures (Shanghai, China). […] Dulbecco’s modified Eagle’s medium/Ham’s F-12 (DMEM/F12), fetal bovine serum (FBS), and phosphate-buffered saline (PBS) were purchased from Biological Industries (Kibbutz Beit HaEmek, Israel). Fluorescein diacetate (FDA), propidium iodide (PI) staining and mitochondrial membrane potential test kit (JC-1) were purchased from Beijing Solarbio Science & Technology Co., Ltd. (Beijing, China). Cell Counting Kit-8 (CCK-8) was purchased from Bimake Co., Ltd. (Shanghai, China). PrimeScript RT reagent kit and PerfectStart Green PCR Master Mix were purchased from TransGen Biotech (Beijing, China). […] The Kinase-Lumi™ Luminescent Kinase Assay Kit and ATP Assay Kit were purchased from Beyotime Biotechnology Co., Ltd. (Wuhan, China). The Insect dopamine (DA) ELISA Kit was purchased from Jiangsu Meimian Industrial Co., Ltd. (Yancheng, Jiangsu, China). HPLC-grade methanol was supplied by XLJ (Yunnan, China). Ultrapure water used in the experiment was prepared using a UP water purification (18.25 MΩ) system (Chengdu, China). Unless otherwise specified, chemicals and solvents were purchased from Kelong Chemical Reagents Factory (Chengdu, China).
The PINK1 activity assay was conducted with certain modifications based on the described by. Ubiquitin is a potent substrate for PINK1, which catalyzes the phosphorylation of ubiquitin while consuming ATP [33]. During the reaction, the consumption of ATP is associated with PINK1 activity. […] The enzymatic reaction was conducted on a white 96-well plate, with all samples dissolved in a buffer solution containing 50 mM Tris-HCl (pH = 7.5), 0.1 mM EDTA, 10 mM MgCl2, and 4% 2-hydroxy-1-ethanethiol. Subsequently, 10 μL of peptide sample, 10 μL of PINK1 (6.8 μM), 10 μL of ubiquitin (0.002 pg/mL), and 20 μL of ATP (10 μM) were added to the plate for incubation at a temperature of 25 °C for a duration of ten minutes. In addition, the blank control group replaces the peptide with a buffer solution. The resveratrol was employed as a positive control. The amount of ATP consumed was detected using the Kinase-Lumi™ Luminescent Kinase Assay Kit. The PINK1 agonistic rate was calculated by the following equation:(1) PINK1 agonistic rate (%)=(1−A−B/C−D)×100% where A represents the absorbance of the sample group consisting of the sample, PINK1, ubiquitin, and ATP; B represents the absorbance of the sample control group consisting of the sample, PINK1, and ubiquitin; C represents the absorbance of the control group consisting of PINK1, ubiquitin, and ATP; D represents the absorbance of the blank control group consisting of PINK1 and ubiquitin. The EC50 of each peptide was calculated using GraphPad Prism, version 10.0.2 software.

[2] = test system: PINK1^B9 flies; assay: Lifespan of PINK1^B9 flies; format: in vivo, Drosophila; conditions: 1 mM in medium, male flies
Protocol: The flies were cultured on a conventional fly medium under controlled conditions of 25 ± 1 °C and 60% relative humidity. The traditional medium for cultivating flies was prepared by boiling 90 g of yeast, 240 g of corn flour, 32 g of agar, 189 g of glucose, and 98 g of sucrose, as well as adding a preservative solution consisting of 25 mL of a 10% methyl-4-hydroxybenzoate in distilled water to make a final volume of 3.5 L. The experimental medium was prepared by supplementing formula 4–24 instant Drosophila medium (Carolina Biological Supply Company, Burlington, NC, USA) with a concentration of 0.1 mM peptide. Male individuals of both wild-type (WT) and PINK1^B9 flies were collected for subsequent experiments.
The newly hatched male WT flies and male PINK1^B9 mutants were collected simultaneously, followed by their division into four groups with 4 bottles per group and 40 flies per bottle. The first group was provided with WT flies and fed with formula 4–24 instant drosophila medium. The second group consisted of PINK1^B9 flies and was also fed with formula 4–24 instant drosophila medium. The third group comprised PINK1^B9 flies and received formula 4–24 instant drosophila medium supplemented with 0.1 mM peptide. […] Fresh medium was replaced every 2–3 days, while the number of flies was recorded daily.

[3] = test system: PINK1^B9 flies; set-up: method as in PMID 30248358; conditions: cited from earlier work
[4] = test system: MPP^+-damaged SH-SY5Y cells; assay: CCK-8 viability, neuroprotection of MPP+-damaged SH-SY5Y cells; format: cell-based, human; conditions: 100 μM
Protocol: The SH-SY5Y human neuroblastoma cell line is extensively employed as a prominent cellular model for PD [31]. The neuroprotective effect of earthworm peptides against the MPP^+-damaged SH-SHY5Y cell model was evaluated using the CCK-8 method. First, the SH-SHY5Y cells were cultured in DMEM/F12 medium supplemented with 10% fetal bovine serum (FBS) and 1% penicillin–streptomycin, and they were maintained at a temperature of 37 °C with a CO2 concentration of 5% in a humidified atmosphere. The SH-SHY5Y cells were seeded into 96-well plates at a density of 1 × 10^4 cells per well, followed by incubation at 37 °C for 24 h. Subsequently, the initial medium was carefully aspirated. The peptide samples were dissolved in DMSO to prepare a high-concentration stock solution and then diluted to the required concentration (10, 25, 50, 100, and 150 μM), prepared using a medium, where they were subsequently introduced into the well and incubated at 37 °C for a duration of 2 h. Then, the cells were treated with MPP^+ (2 mM) per well for an additional 24 h. […] Following the completion of the experiment, the 96-well plate was extracted, and the absorbance was measured at 450nm by the […] GO spectrophotometric plate reader (Thermo Scientific, Waltham, MA, USA). The data were analyzed using GraphPad Prism, version 6.0.

[5] = test system: SH-SY5Y cells; conditions: cited from earlier work
Text: (§1) Earthworm is used in traditional Chinese medicine as an animal-derived remedy. Its protein content and amino acid composition are better than those of fish, cow milk, and soybean meal. […] Moreover, its essential amino acid utilization rate is higher in the body and is more readily assimilated by the human system. Therefore, it is used as a supplement in animal feed and human food. Earthworm has been recorded in the Chinese medical classics of “ ...

[6] = test system: inflammatory enzymes; conditions: in vitro and in vivo; cited from earlier work
Text: as §1

[7] = target: PTEN-induced putative kinase 1 (PINK1) (UniProt D6WMX4)
[8] = ubiquitin substrate, 10 μM ATP, pH 7.5 Tris-HCl, 25 °C, 10 min, residual ATP luminescence, mean ± SD (n = 3)

Molecule: Oc1ccc(/C=C/c2cc(O)cc(O)c2)cc1 [Resveratrol, resveratrol]
PINK1 agonistic rate [1, 8]: 91.45 ± 0.34%
EC50 ([1]; ubiquitin substrate, 10 μM ATP, pH 7.5 Tris-HCl, 25 °C, 10 min, residual ATP luminescence, mean ± SD (n = 3), read-out: EC50, PINK1 agonistic activity): 13.8 ± 0.58 µM
lifespan extension of PINK1^B9 flies [2]: 23.33%
lifespan of PINK1^B9 flies (in words) ([3]; 0.2 mM resveratrol): no significant effect
lifespan of PINK1^B9 flies (in words) ([3]; 1 mM resveratrol): effective in extending the lifespan

Molecule: AGFAGDDAPR [peptide identified from earthworm (Lumbricus terrestris), synthesized by solid phase]
PINK1 agonistic rate [1, 8]: 33.45 ± 0.45%

Molecule: AVFPSIVGR
cell viability (restored to) ([4]; 2 h pre-incubation, then 2 mM MPP^+ 24 h, 37 °C, CCK-8, absorbance 450 nm, n = 3): 68.77%
EC50 [1]: 88.5 ± 0.97 µM
PINK1 agonistic rate [1, 8]: 50.35 ± 0.72%

Molecule: GYSFTTTAER
cell viability (restored to) ([4]; 2 h): 70.08%
EC50 [1]: 76.8 ± 1.3 µM
PINK1 agonistic rate [1, 8]: 52.46 ± 0.96%

Molecule: ILLIILI [peptide identified from earthworm (Lumbricus terrestris), synthesized by solid phase]
PINK1 agonistic rate [1, 8]: 17.16 ± 0.55%

Molecule: QLICWRRFR [LumA5, lumbricusin analog 5]
viability of SH-SY5Y cells [5]: improved
expression of lip-induced inflammatory enzymes [6]: significantly reduce

Molecule: RNRRWCIDQQA [lumbricusin, antimicrobial peptide derived from earthworm]
apoptosis and decreased viability induced by MPP^+ ([5]; SH-SY5Y): inhibits
SH-SY5Y cell proliferation [5]: promotes

EC50 of PINK1 agonistic activity; ATP consumed by purified PINK1 with ubiquitin as substrate (Kinase-Lumi luminescent kinase assay) [7]: 76.8 µM
PINK1 agonistic rate (%) at 100 μM peptide; ATP consumed by purified PINK1 with ubiquitin as substrate (Kinase-Lumi luminescent kinase assay) [7]: 52.5%
B1: … (peptide)
peptide: GYSFTTTAER

PINK1 agonistic rate (%) at 100 μM peptide; ATP consumed by purified PINK1 with ubiquitin as substrate (Kinase-Lumi luminescent kinase assay) [7]: 33.5%
B2: … (peptide)
peptide: AGFAGDDAPR

PINK1 agonistic rate (%) at 100 μM peptide; ATP consumed by purified PINK1 with ubiquitin as substrate (Kinase-Lumi luminescent kinase assay) [7]: 17.2%
B3: ILLIILI (peptide)
peptide: ILLIILI

EC50 of PINK1 agonistic activity; ATP consumed by purified PINK1 with ubiquitin as substrate (Kinase-Lumi luminescent kinase assay) [7]: 88.5 µM
PINK1 agonistic rate (%) at 100 μM peptide; ATP consumed by purified PINK1 with ubiquitin as substrate (Kinase-Lumi luminescent kinase assay) [7]: 50.4%
B4: … (peptide)
peptide: AVFPSIVGR
